Values joined by “and” are separate entries in the source; they are usually repeats but may differ in a detail not shown here. Equal values may be shown once. “Also recorded” adds a separate entry of the source.
Tests used:
[1] = tested on: wildtype NRF2 sequence; assay: In vitro cleavage reaction, wildtype NRF2 amplicons; type: biochemical, human; conditions: A549 or H1703 parental amplicons, 0.5-5 pmol RNP, gel electrophoresis
Protocol: (§1) As proof of concept, an in vitro cleavage reaction was conducted to assess the level of discrimination using the R34G guide RNA in a ribonucleoprotein complex (RNP). The in vitro cleavage reaction encompasses complexing target specific-guide RNA with Cas9 protein to form a ribonucleoprotein (RNP). The RNP is incubated with DNA of interest (100 ng) and the reaction and cleavage products are visualized by gel electrophoresis. For this experiment, wildtype and R34G-mutated NRF2 PCR products (901 bp) from an NRF2 expression plasmid (FIG. 21) were incubated with R34G-targeting RNP complex (1 μM) and cleavage products were visualized by gel electrophoresis, shown in FIG. 22.
Once the sequences were verified, genomic DNA from each cell line was used to amplify exon 2 of NRF2. The PCR products (530 bp) from each cell line were then used in in vitro cleavage reactions under various parameters to test specificity and fidelity of the R34G-targeting RNP. For these cleavage reactions, expected cleavage products would appear at 385 and 145 bp as indicated by the red lines along the ladder, with uncut product appearing at 530 bp. FIG. 24 depicts the gel image from an in vitro cleavage reaction using wildtype NRF2 sequence from parental A549 cells and R34G-mutated NRF2 sequence from the A549 R34G-6 cells. […]

[2] = tested on: R34G-mutated NRF2 sequence; assay: In vitro cleavage reaction, R34G-mutated NRF2 amplicons; type: biochemical, human; conditions: gel electrophoresis; for cleavage specificity, NRF2 expression plasmid and 901 bp amplicons: wildtype versus R34G NRF2, RNP 1 μM, DNA 100 ng
Protocol: as §1
Once the sequences were verified, genomic DNA from each cell line was used to amplify exon 2 of NRF2. The PCR products (530 bp) from each cell line were then used in in vitro cleavage reactions under various parameters to test specificity and fidelity of the R34G-targeting RNP. For these cleavage reactions, expected cleavage products would appear at 385 and 145 bp as indicated by the red lines along the ladder, with uncut product appearing at 530 bp. FIG. 24 depicts the gel image from an in vitro cleavage reaction using wildtype NRF2 sequence from parental A549 cells and R34G-mutated NRF2 sequence from the A549 R34G-6 cells. An increasing concentration (0.5-5 pmol) of R34G-targeting RNP was used to determine the threshold and fidelity of the sequence. […] Uncut product (top band, 530 bp) can still be seen in lanes 7-10, which corresponds to the heterozygosity of the R34G mutation in the A549 R34G-6 cell line. Therefore, the wildtype NRF2 allele in the A549 R34G-6 cell line acts as an internal negative control.
Another in vitro cleavage reaction was conducted to assess the cleavage efficiency of the wildtype NRF2 sequence to ensure the R34G-targeting RNP was, in fact, not cleaving the wildtype NRF2 sequence because of the lack of the R34G mutation. A guide RNA with a cut site 29 bp upstream (labeled Neh2 RNP) from the R34G RNP cut site was selected and used as a positive cleavage control. […] Lanes 1-8 were reactions using wildtype NRF2 sequence while lanes 9-16 were reactions using R34G-mutated NRF2 sequence. In lanes 2-4 and 10-12, PCR products were incubated with increasing concentrations (1, 3 & 5 pmol) of RNP targeting the beginning of exon 2 (Neh2 RNP). The Neh2 guide RNA sequence is: 5′ […] 3′ (SEQ ID NO:13) which is a native CRISPR site and used as the positive control for cleavage for these reactions. […] In lanes 6-8 and 14-16, PCR products were incubated with increasing concentrations (1, 3 & 5 pmol) of R34G-targeting RNP. […] This further reinforces the specificity of the R34G-targeting RNP only recognizing the target DNA in the presence of the R34G mutation in exon 2 of NRF2. […]

[3] = tested on: wildtype NRF2 gene in A549 parental cells; assay: TIDE analysis after transfection of R34G-targeting RNP, A549 parental cells; type: cell-based, human
Protocol: (§2) The in vitro cleavage reactions were further assessed through cell based-experiments using the same cell lines: A549 and H1703 parental cell lines and the A549 R34G-6 cell line. The cell lines were cultured under the standard conditions and transfected by electroporation (Lonza, Nucleofection) using previously established parameters. FIGS. 27-29 depict the genetic analysis of eight separate experiments using all three cell lines after transfection of the R34G-targeting RNP. This experiment was conducted under three different conditions. The first condition was using an equimolar concentration of duplexed guide RNA to Cas9. The second condition was using five times the amount of duplexed guide RNA to Cas9, along with using a GFP (Green Fluorescent Protein) expression vector to measure transfection efficiency and to sort the GFP-positive population for further analysis. The third condition was using five times the amount of single guide RNA to Cas9, along with the GFP expression vector and sorting of the GFP-positive population for further analysis.
FIG. 27 depicts the genetic analysis after transfection of the R34G-targeting RNP in the A549 parental cells. The A549 parental cells contain a wildtype NRF2 gene therefore there is no native CRISPR/Cas9 recognition site for the R34G-targeting RNP. […]

[4] = tested on: R34G-mutated NRF2 gene in A549 R34G-6 cells; assay: TIDE analysis after transfection of R34G-targeting RNP, A549 R34G-6 cells; type: cell-based, human; conditions: GFP-positive sorted population
Protocol: as §2
FIG. 28 depicts the genetic analysis after transfection of the R34G-targeting RNP in the A549 R34G-mutated clonal cell line (A549 R34G-6). The A549 R34G-6 cells contain a heterozygous R34G mutation in exon 2 of the NRF2 gene, creating a new CRISPR recognition site for the R34G-targeting RNP. […] The significant total indel efficiency indicates the R34G-targeting RNP is very active. […] The lower R2 value indicates some of the sequence analysis is unaccounted for likely because of sequence quality. […] Although only a speculation, the R34G-targeting RNP does differentiate between the wildtype and R34G-mutated alleles within the clonal cell line.

[5] = tested on: wildtype NRF2 gene in NCI-H1703 cell line; assay: TIDE analysis after transfection of R34G-targeting RNP, H1703 parental cells; type: cell-based, human
Protocol: as §2
FIG. 29 depicts the genetic analysis after transfection of the R34G-targeting RNP in the NCI-H1703 cell line, which contains a wildtype NRF2 gene and no native CRISPR recognition site.

[6] = top panel, bulk unsorted population

Substance: 5′ GATATAGATCTTGGAGTAAGTGG 3′ [R34G-targeting RNP]
- cleavage of wildtype NRF2 amplicon (530 bp) [1]: does not result in cleavage of wildtype NRF2 sequence; also recorded: minimal cleavage seen in lanes 6-8
- cleavage of R34G-mutated NRF2 amplicon (530 bp) ([2]; A549 R34G-6 amplicon, 0.5-5 pmol RNP): cleavage products can be seen even with half of the standard concentration; also recorded: clearly seen
- cleavage specificity, NRF2 expression plasmid and 901 bp amplicons [2]: only recognizes and cleaves the mutated DNA sequence
- cleavage specificity, NRF2 expression plasmid and 901 bp amplicons ([2]; listed as R34G RNP): only recognizes and cleaves with the mutation present
- total indel efficiency ([3]; bottom panel, GFP-positive sorted population): 11.4% and 11.3%
- total indel efficiency [3, 6]: 11.8% and 11.4%
- total indel efficiency ([4]; bottom panel): 32.7%
- sequence analyzed that is wildtype ([4]; middle panel): 32.0%
- total indel efficiency ([4]; middle panel): 55.7%
- total indel efficiency ([5]; bottom panel, GFP-sorted population): 4.6%
- total indel efficiency [5, 6]: 0.0%

Source: US11505797B2, “Gene knockout of variant NRF2 for treatment of cancer” (Christiana Care Health Services, Inc., priority 2019, dated 2022)
